Assay results reported in ChEMBL document CHEMBL5241089, “Matrix metalloproteinases inhibitors in idiopathic pulmonary fibrosis: Medicinal chemistry perspectives” (Eur J Med Chem, 2021).
pIC50: −log10 of the molar value.

Tests used:
Stromelysin-2 [1] = target: T1, Stromelysin-2 (Homo sapiens, UniProt P09238); experiment: Inhibition of MMP-10 (unknown origin)
Stromelysin-2 [2] = target: T1, Stromelysin-2; experiment: Inhibition of MMP10 (unknown origin) using FRET peptide

T1 sequence (P09238 whole entry): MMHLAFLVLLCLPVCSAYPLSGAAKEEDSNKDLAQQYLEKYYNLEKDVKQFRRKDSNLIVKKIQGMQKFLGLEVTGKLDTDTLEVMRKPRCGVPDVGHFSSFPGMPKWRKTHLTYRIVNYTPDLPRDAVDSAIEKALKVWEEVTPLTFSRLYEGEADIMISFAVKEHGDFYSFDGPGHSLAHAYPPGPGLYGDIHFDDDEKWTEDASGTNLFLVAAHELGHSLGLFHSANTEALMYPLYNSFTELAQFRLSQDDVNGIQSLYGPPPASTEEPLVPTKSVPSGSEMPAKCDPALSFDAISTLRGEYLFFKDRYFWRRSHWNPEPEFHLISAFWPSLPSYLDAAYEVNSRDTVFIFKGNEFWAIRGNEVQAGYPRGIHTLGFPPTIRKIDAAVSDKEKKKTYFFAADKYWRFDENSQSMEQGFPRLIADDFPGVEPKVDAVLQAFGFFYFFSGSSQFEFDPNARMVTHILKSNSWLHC

A pIC50 (Stromelysin-2 [1]) of 7.62 was found for CC(=O)N1c2nc(C)cc(=O)n2[C@H](c2ccc(Br)cc2)N1C(C)=O in this work.
A pIC50 (Stromelysin-2 [2]) of 5.92 was found for O=C(O)CCCCCCCCOc1ccc(CC(=O)Nc2ccc3c(c2)C(=O)N(Cc2ccccc2)C3=O)cc1 in this work.
